Measurements reported in ChEMBL document CHEMBL3045122, “Synthesis, in vitro antimicrobial, antiproliferative, and QSAR studies of N-(substituted phenyl)-2/4-(1H-indol-3-ylazo)-benzamides” (Med Chem Res, 2013).

How the values were obtained:
Candida albicans [1] = assay: Ratio of MFC to MIC for Candida albicans; assay type: functional
Aspergillus niger [2] = assay: Antifungal activity against Aspergillus niger assessed as growth inhibition after 7 days by tube dilution method; assay type: functional
HCT-116 = assay: Cytotoxicity against Homo sapiens (human) HCT116 cells assessed as growth inhibition after 72 hr by MTT assay; assay type: functional, cell-based
Candida albicans [3] = assay: Antifungal activity against Candida albicans assessed as growth inhibition after 48 hr by tube dilution method; assay type: functional
Candida albicans [4] = assay: Fungicidal activity against Candida albicans; assay type: functional
Staphylococcus aureus [5] = assay: Bactericidal activity against Staphylococcus aureus; assay type: functional
Staphylococcus aureus [6] = assay: Ratio of MBC to MIC for Staphylococcus aureus; assay type: functional
P388 = assay: Cytotoxicity against Mus musculus (mouse) P388 cells assessed as growth inhibition after 72 hr by MTT assay; assay type: functional, cell-based
Escherichia coli [7] = assay: Antibacterial activity against Escherichia coli assessed as growth inhibition after 24 hr by tube dilution method; assay type: functional
Staphylococcus aureus [8] = assay: Antibacterial activity against Staphylococcus aureus assessed as growth inhibition after 24 hr by tube dilution method; assay type: functional
Escherichia coli [9] = assay: Bactericidal activity against Escherichia coli; assay type: functional
Bacillus subtilis [10] = assay: Antibacterial activity against Bacillus subtilis assessed as growth inhibition after 24 hr by tube dilution method; assay type: functional
Escherichia coli [11] = assay: Ratio of MBC to MIC for Escherichia coli; assay type: functional
Aspergillus niger [12] = assay: Fungicidal activity against Aspergillus niger; assay type: functional
Aspergillus niger [13] = assay: Ratio of MFC to MIC for Aspergillus niger; assay type: functional
MCF7 = assay: Cytotoxicity against Homo sapiens (human) MCF7 cells assessed as growth inhibition after 72 hr by MTT assay; assay type: functional, cell-based
Bacillus subtilis [14] = assay: Ratio of MBC to MIC for Bacillus subtilis; assay type: functional
Bacillus subtilis [15] = assay: Bactericidal activity against Bacillus subtilis; assay type: functional

Compound | Ratio (Candida albicans [1]) | -logMIC (Aspergillus niger [2]) | IC50 (HCT-116) | -logMIC (Candida albicans [3]) | MFC (Candida albicans [4]) | MBC (Staphylococcus aureus [5]) | Ratio (Staphylococcus aureus [6]) | IC50 (P388) | -logMIC (Escherichia coli [7]) | -logMIC (Staphylococcus aureus [8]) | MBC (Escherichia coli [9]) | -logMIC (Bacillus subtilis [10]) | Ratio (Escherichia coli [11]) | MFC (Aspergillus niger [12]) | Ratio (Aspergillus niger [13]) | IC50 (MCF7) | Ratio (Bacillus subtilis [14]) | MBC (Bacillus subtilis [15])
Cc1ccc(C)c(NC(=O)c2ccc(/N=N\c3c[nH]c4ccccc34)cc2)c1 | 3 | 1.47 | 0.5435 uM/ml | 1.47 | 0.07 uM/ml | >0.14 uM/ml | 3 | Not Active | 1.77 | 1.47 | >0.14 uM/ml | 1.47 | 3 | 0.03 uM/ml | 3 | 0.0299 uM/ml | 3 | >0.14 uM/ml
Cc1ccccc1NC(=O)c1ccc(/N=N\c2c[nH]c3ccccc23)cc1 | 3 | 1.45 | 0.5085 uM/ml | 1.45 | >0.14 uM/ml | >0.14 uM/ml | 3 | Not Active | 1.45 | 1.15 | >0.14 uM/ml | 1.45 | 3 | 0.04 uM/ml | 3 | 0.0734 uM/ml | 3 | >0.14 uM/ml
O=C(Nc1ccccc1F)c1ccc(/N=N\c2c[nH]c3ccccc23)cc1 | 3 | 1.46 | 0.5587 uM/ml | 1.46 | 0.07 uM/ml | >0.14 uM/ml | 3 | 0.1061 uM/ml | 1.46 | 1.46 | >0.14 uM/ml | 1.46 | 3 | 0.03 uM/ml | 3 | 0.0838 uM/ml | 3 | >0.14 uM/ml
O=C(Nc1ccc(Cl)cc1)c1ccc(/N=N\c2c[nH]c3ccccc23)cc1 | 3 | 1.48 | 0.1867 uM/ml | 1.48 | >0.13 uM/ml | >0.13 uM/ml | 3 | 0.08 uM/ml | 1.48 | 1.48 | >0.13 uM/ml | 1.48 | 3 | 0.13 uM/ml | 3 | 0.1067 uM/ml | 3 | >0.13 uM/ml
O=C(Nc1cccc(Cl)c1)c1ccc(/N=N\c2c[nH]c3ccccc23)cc1 | 3 | 1.48 | 0.08 uM/ml | 1.48 | >0.13 uM/ml | >0.13 uM/ml | 3 | 0.2667 uM/ml | 1.48 | 1.48 | >0.13 uM/ml | 1.48 | 3 | 0.03 uM/ml | 3 | 0.0827 uM/ml | 3 | >0.13 uM/ml
COc1ccccc1NC(=O)c1ccc(/N=N\c2c[nH]c3ccccc23)cc1 | 3 | 1.47 | 0.1216 uM/ml | 1.47 | 0.03 uM/ml | >0.13 uM/ml | 3 | Not Active | 1.47 | 1.47 | >0.13 uM/ml | 1.47 | 3 | 0.07 uM/ml | 3 | 0.0865 uM/ml | 3 | >0.13 uM/ml
O=C(Nc1ccc([N+](=O)[O-])cc1)c1ccc(/N=N\c2c[nH]c3ccccc23)cc1 | 3 | 1.49 | 0.1558 uM/ml | 1.49 | 0.13 uM/ml | >0.13 uM/ml | 3 | 0.0112 uM/ml | 1.79 | 1.79 | >0.13 uM/ml | 1.49 | 3 | 0.03 uM/ml | 3 | 0.0545 uM/ml | 3 | >0.13 uM/ml
O=C(Nc1ccccc1[N+](=O)[O-])c1ccc(/N=N\c2c[nH]c3ccccc23)cc1 | 3 | 1.49 | 0.2078 uM/ml | 1.49 | >0.13 uM/ml | >0.13 uM/ml | 3 | 0.0779 uM/ml | 1.49 | 1.49 | >0.13 uM/ml | 1.79 | 3 | 0.03 uM/ml | 3 | 0.1013 uM/ml | 3 | >0.13 uM/ml
Cc1cccc(NC(=O)c2ccc(/N=N\c3c[nH]c4ccccc34)cc2)c1C | 3 | 1.47 | 0.2717 uM/ml | 1.47 | >0.14 uM/ml | >0.14 uM/ml | 3 | 0.0516 uM/ml | 1.47 | 1.77 | >0.14 uM/ml | 1.47 | 3 | 0.03 uM/ml | 3 | 0.106 uM/ml | 3 | >0.14 uM/ml
O=C(Nc1ccccc1Cl)c1ccc(/N=N\c2c[nH]c3ccccc23)cc1 | 3 | 1.48 | 0.12 uM/ml | 1.48 | >0.13 uM/ml | >0.13 uM/ml | 3 | Not Active | 1.78 | 1.18 | >0.13 uM/ml | 1.48 | 3 | 0.03 uM/ml | 3 | 0.112 uM/ml | 3 | >0.13 uM/ml
Cc1ccccc1NC(=O)c1ccccc1/N=N\c1c[nH]c2ccccc12 | 3 | 1.45 | 1.1299 uM/ml | 1.45 | >0.14 uM/ml | >0.14 uM/ml | 3 |  | 1.45 | 1.15 | >0.14 uM/ml | 1.45 | 3 | 0.04 uM/ml | 3 | 0.1412 uM/ml | 3 | >0.14 uM/ml
O=C(Nc1ccccc1Cl)c1ccccc1/N=N\c1c[nH]c2ccccc12 | 3 | 1.48 | 0.24 uM/ml | 1.48 | >0.13 uM/ml | >0.13 uM/ml | 3 |  | 1.48 | 1.18 | >0.13 uM/ml | 1.48 | 3 | 0.03 uM/ml | 3 | 0.1067 uM/ml | 3 | >0.13 uM/ml
Cc1ccc(NC(=O)c2ccccc2/N=N\c2c[nH]c3ccccc23)c(C)c1 | 3 | 1.47 | 0.0815 uM/ml | 1.47 | >0.14 uM/ml | >0.14 uM/ml | 3 |  | 1.47 | 1.17 | >0.14 uM/ml | 1.47 | 3 | 0.03 uM/ml | 3 | 0.1087 uM/ml | 3 | >0.14 uM/ml
O=c1[nH]cc(F)c(=O)[nH]1 [FLUOROURACIL] |  |  | 0.0462 uM/ml |  |  |  |  | 0.0219 uM/ml |  |  |  |  |  |  |  | 0.0052 uM/ml |  | 
Cc1ccc(C)c(NC(=O)c2ccccc2/N=N\c2c[nH]c3ccccc23)c1 | 3 | 1.47 | 0.163 uM/ml | 1.47 | >0.14 uM/ml | >0.14 uM/ml | 3 |  | 1.47 | 1.17 | >0.14 uM/ml | 1.77 | 3 | 0.03 uM/ml | 3 | 0.1087 uM/ml | 3 | >0.14 uM/ml
O=C(Nc1ccccc1F)c1ccccc1/N=N\c1c[nH]c2ccccc12 | 3 | 1.46 | 0.2235 uM/ml | 1.46 | >0.14 uM/ml | >0.14 uM/ml | 3 |  | 1.76 | 1.16 | >0.14 uM/ml | 1.46 | 3 | 0.03 uM/ml | 3 | 0.1397 uM/ml | 3 | >0.14 uM/ml
